Series [1] can be described thus: Solubility of solvents in water and of water in solvents. Format: physicochemical. To be noted: for Solubility, Solvent in H2 O: solvent in water; for Solubility, H2 O in Solvent: water in solvent.
The nature of series [2]: Emulsion formation with different organic solvents. To be noted: 50 parts solvent, 100 parts epoxy resin, 14 parts surfactant, 150 parts deionized water. The format is physicochemical. On the procedure: A series of emulsions were prepared using 100 parts of an epoxy resin (diglycidylether of bisphenol A) having an epoxy equivalent weight of 2,000-2,500, 50 parts of a solvent, 14 parts of surfactant having the formula [drawing 1] wherein a+ c is about 190-200, b is about 60-70, and average molecular weight is about 12,500, and 150 parts of deionized water. In each emulsion a different solvent was used. Each emulsion, as well as other emulsions whose formulations are described in this specification, was prepared using the following general procedure:
The epoxy resin was dissolved in the solvent by heating at 130° C. with agitation. The resin solution was then cooled to about 65° C. and placed in high speed dispersing equipment. The surfactant was added. (In formulations wherein the emulsion coating was to be baked, cross-linking catalyst and curing agent, as defined hereinafter, were also added at this point.) Part of the water (about 100 parts) was then slowly added under high speed agitation (approximately 2,000 ft./min. peripheral speed) to pass the inversion point. Thereupon the agitation speed was slowed down to about 1,000 ft./min. and the balance of the water was added.
In each emulsion, a different organic solvent was used. […] Each emulsion formed was applied, by wire wound bar application, to a test panel of lubricated electrolytic tinplated steel. […]

Consider `CCCCCCOCCO` [Hexyl Cellosolve, 2-Hexoxyethanol], for which, in series [1], the “Solubility, Solvent in H2 O” value was determined as 0.99 wt. % and the “Solubility, H2 O in Solvent” value stood at 18.8 wt. %.
The corresponding values for `CCOCCO` [Ethyl Cellosolve] are “.infin” and “.infin”.
As to `CC(C)CC(=O)CC(C)C` [diisobutyl ketone], in series [2], the emulsion formation result is given as “an emulsion could not be formed”.
As to `COCCO` [Methyl Cellosolve], in series [1], the “Solubility, Solvent in H2 O” value was “.infin” and the “Solubility, H2 O in Solvent” value is reported as “.infin”.
Regarding `OCCOCCOc1ccccc1` [diethylene glycol monophenyl ether], in series [2], the emulsion formation result is listed as “an emulsion could not be formed”.

Values taken from US4026857A, “Epoxy emulsion water-based coating” (priority 1975, dated 1977).
